Reference: article PMC6158189, “A pharmacological probe identifies cystathionine β-synthase as a new negative regulator for ferroptosis” (Cell Death & Disease, 2018)

Target: T1, hCBS-FL wild type (293T-CBS WT) (Homo sapiens, UniProt P35520)
T1 construct: human CBS or hCSE full-length (CBS-FL or CSE) was subcloned into pGEX-KG, pcDNA3 or pCDH vector; expressed in transfected cells
T1 sequence (P35520 1-551): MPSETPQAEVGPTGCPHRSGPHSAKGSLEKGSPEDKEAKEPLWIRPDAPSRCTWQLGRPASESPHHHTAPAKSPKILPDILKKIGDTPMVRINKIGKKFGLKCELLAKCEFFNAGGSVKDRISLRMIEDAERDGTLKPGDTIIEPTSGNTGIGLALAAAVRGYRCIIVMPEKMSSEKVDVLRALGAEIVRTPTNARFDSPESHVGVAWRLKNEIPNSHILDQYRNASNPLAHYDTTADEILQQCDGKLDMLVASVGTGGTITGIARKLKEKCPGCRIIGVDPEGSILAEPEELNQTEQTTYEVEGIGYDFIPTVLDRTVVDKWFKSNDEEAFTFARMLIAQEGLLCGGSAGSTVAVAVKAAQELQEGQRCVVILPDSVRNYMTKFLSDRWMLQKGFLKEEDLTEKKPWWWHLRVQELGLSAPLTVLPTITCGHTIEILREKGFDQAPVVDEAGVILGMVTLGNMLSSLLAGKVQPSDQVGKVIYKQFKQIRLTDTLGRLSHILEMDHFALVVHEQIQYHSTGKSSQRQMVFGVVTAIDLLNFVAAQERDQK
Test: H2S in HEK293T cells stably expressing hCBS WT (AzMC probe)
Format: cell-based
Settings: 8 h, 293T-CBS WT
Experimental: HEK293T cells were transiently transfected with empty vector (EV, i and ii), hCBS-FL (iii and iv) or hCSE (v and vi) plasmids, followed by incubation with DMSO (i–iii and v) or 10 μM CH004 (iv and vi) for 8 h before staining with 50 μM AzMC, a H2S-specific probe (“Materials and Methods” section). For larger fluorescent and bright-field images, please see Supplementary Figure 4. The expression levels of hCBS or hCSE in HEK293T cells after transient transfections were determined by western blotting using an anti-CBS antibody (3E1, 1:2000; Abnova) or anti-CSE antibody (1:500, GeneTex). The densities of protein bands for hCBS or hCSE in the blots were quantified with the ImageJ software (National Institutes of Health, Bethesda, MD, USA) and expressed as ratios of respective control (EV group). All immunoblots are representative of at least two independent experiments using GAPDH as the loading control. The fluorescent images of the H2S (blue) were accordingly quantified (“Materials and Methods” section) with ImageJ. […] The DMSO groups of the controls (CTR), which are expressing of hCBS or hCSE, were normalized to 100% and the levels of H2S in CH004-treated or EV group are shown as relative percentages. c, d CH004 dose-dependently suppresses the activity of hCBS WT without affecting the activity of CH004-insensitive mutant. HEK293T cells stably expressing EV (i and ii), hCBS-FL wild type (293T-CBS WT; iii–v) or CBS-FL mutant (293T-CBS Q222A, vi–viii) were treated with DMSO (i–iii and vi), 5 μM CH004 (iv, vii) or 10 μM CH004 (v, viii) for 8 h before staining with the AzMC. For larger fluorescent and bright-field images, please see Supplementary Figures 5–6. […] The DMSO groups of the controls (CTR), which are expressing of hCBS-FL wt or Q222A mutant, were normalized to 100% and the levels of H2S in CH004-treated or EV group are shown as relative percentages. A representative fluorescence image from three independent experiments is shown. Means ± SDS (n = 3). Statistical analyses were performed on the raw data for each group by one-way (b) or two-way (d) ANOVA with Bonferroni post-tests. ***p < 0.001. Bars, 50 μm
H2S levels in living cells were detected using a H2S-specific fluorescent probe according to a protocol described previously[31],[55]. To measure H2S in transiently transfected HEK293T cells, the cells were seeded on poly-D-Lys-coated coverslips (Thermo Scientific, Waltham, MA, USA) in 12-well plates at a density of ~ 1 × 10^5 cells per well, and hCBS or hCSE plasmids were transiently transfected by X-tremeGENE HP DNA Transfection Reagent according to the manufacturer’s protocol (Roche, Basel, Switzerland). […] After incubation with 50 μM AzMC at 37 °C for 30 min, the cells were washed 4 times with PBS, and the fluorescent images were recorded with excitation by 405 nm laser by using a A1Si (Nikon) confocal microscope. The intensity of the blue fluorescent signals, indicating the amount of H2S, was quantified by ImageJ software (NIH, Bethesda, ML). The H2S signal was then corrected for the background signal detected in HEK293T cells transiently or stably expressing of empty vector (HEK293T-EV) and normalized by the corresponding cell-occupying area and compared with the control (DMSO group, 100%). Similarly, the H2S signal in HepG2 cells was quantified by AzMC staining, corrected for the background signal outside the cells, normalized by the cell area and expressed as percentages of DMSO control (100%). […]

Cn1nc(Cc2ccccc2)nc2c(=O)n(C)c(=O)nc1-2 [CH004, 3-benzyl-1,6-dimethylpyrimido[5,4-e][1,2,4]triazine-5,7(1H,6H)-dione]
decrease in H2S (5 μM): 22%
decrease in H2S (10 μM): 43%
